Where “and” joins values, the source holds several entries; their conditions need not be identical. Identical values can stand only once.
Experiments:
[1] = test system: mCAR target genes (cyp2b10, cyp3a11, sult2a1) in mouse liver; experiment: qPCR of mCAR target genes in mouse liver after intraperitoneal treatment; type: in vivo
Experimental: (§1) 12–15 week-old C57BL/6 J mice were obtained from Jackson Laboratories and were housed on a standard 12 h light/dark cycle. Nr1i3^−/− mice with C57BL/6 J background were obtained from David Moore’s lab (PMID: 11057673) at Baylor College of Medicine, and used at 13–26 weeks of age. Wild-type male, female and Nr1i3^−/− male mice were used in this study, due to known sex-specific CAR activities. Mice were housed in groups of 2–5 mice per cage on a standard 12 h light/dark cycle and fed with rodent chow diet (Inotiv, Teklad rodent diet 2918). Temperature was maintained at 21 °C with a range of 21–24 °C and humidity at 16–51%. National Institute of Health guidelines for the care and use of laboratory animals were followed with all experiments performed as directed by the Institutional Animal Care and Use Committee at the University of Illinois, Urbana-Champaign (UIUC, IACUC protocol: 22183). Mice were acclimatized to the UIUC mouse facility for 2 weeks prior to experiments. DIM and DIE were dissolved in 5% DMSO in corn oil and injected intraperitoneally at 25 mg/kg once daily for three days. After 4 h of the third injection, mice were sacrificed to collect serum, livers and intestines. TCPOBOP was dissolved in corn oil and injected intraperitoneally at 3 mg/kg once and the livers collected after 3 days for further studies. When used to block CAR activity, 100 mg/kg androstenol was injected intraperitoneally 15 min prior to the first DIM or DIE treatment. RNA from mice livers was isolated using TRIzol (Invitrogen) reagent using the manufacturer’s instructions. 3–5 µg of RNA was used to synthesize cDNA with random primers (NEBioLabs) and Maxima Reverse Transcriptase kits (Thermo Fisher Scientific). cDNA was further diluted, and 50 ng was used for SYBR green (Thermo Fisher Scientific) based qRT-PCR. Relative gene expression was calculated by the delta Ct method and normalized to 36b4 levels as loading controls. qPCR primers for gene expression analysis are listed in Supplementary Table 3.

Liver histology (H&E) = type: in vivo; conditions: mouse, in vivo
Experimental: as §1, with “3. […]” for “3.”

hCAR LBD-SRC1 protein = target: T1, hCAR LBD-SRC1 protein (Homo sapiens, UniProt Q14994); experiment: Fluorescence thermal shift assay (TSA); type: binding; conditions: for stabilization of CAR-LBD-SRC1 fusion (thermal stability): dose-response 0.4-50 µM; for Tm: diindoles at 12.5 µM, APO Tm 51.5 °C, means of triplicates
T1 construct: The human CAR LBD (Lys^108 – Ser^352) was amplified by PCR from cDNA; HIS6; made in house; host or cells: E. coli BL21(DE3)
T1 sequence (Q14994 108-352): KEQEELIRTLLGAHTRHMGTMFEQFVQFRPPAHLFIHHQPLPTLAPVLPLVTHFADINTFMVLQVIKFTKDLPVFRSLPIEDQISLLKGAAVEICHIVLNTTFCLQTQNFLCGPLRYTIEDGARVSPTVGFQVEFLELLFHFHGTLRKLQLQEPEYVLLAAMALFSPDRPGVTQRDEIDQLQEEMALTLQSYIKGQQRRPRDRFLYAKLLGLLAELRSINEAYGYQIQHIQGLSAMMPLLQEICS
Experimental: Purified hCAR LBD-SRC1 protein was assayed in 137 mM NaCl, 2.7 mM KCl, 10 mM Na2HPO4, and 1.8 mM KH2PO4, 0.5% DMSO, pH 7.4, at a final concentration of 2.2 µM. SYPRO Orange was used at a final concentration of 10× (Invitrogen, S6650). Each sample was divided into three 25 µL replicates. Sample solutions were dispensed into 96-well optical reaction plates (Thermo Fisher Scientific, 4306737) and sealed with optical PCR plate sheets (Thermo Fisher Scientific, AB-1170). TSA experiments were carried out using a QuantStudio 12 K Flex Real Time PCR System (Applied Biosystems). The temperature was ramped up from 25 °C to 95 °C at a rate of 0.3 °C/min, and SYPRO orange fluorescence monitored. Raw fluorescence data and melting temperatures were determined using nonlinear regression curve fitting using GraphPad Prism 9.

hCAR = target: T2, hCAR (Homo sapiens, UniProt Q14994); experiment: Bottom-up HDX-MS of hCAR with ligand; type: binding; conditions: 100 µM ligand
T2 construct: The human CAR LBD (Lys^108 – Ser^352) was amplified by PCR from cDNA; HIS6; made in house; host or cells: E. coli BL21(DE3)
T2 sequence (Q14994 108-352): T1 sequence (Q14994 108-352)
Experimental: Human CAR protein was prepared at 10 µM in 100 mM ammonium acetate pH 7.25 and diluted into either equilibration buffer (10 mM phosphate buffer, pH 7.5) or deuterated reaction buffer (10 mM phosphate buffer, 150 mM NaCl, pH 7.5 in D2O). After labeling times of 1, 10 or 30 min at 25 °C, samples were mixed with equal volumes of quench buffer (100 mM phosphate buffer, pH 2.5) at 0 °C. […] HDX-MS was performed using a commercial Waters HDX system (M-class ACQUITY UPLC and Water Cyclic IMS Mass Spectrometer). Leucine enkephalin was used for mass correction, and all time points were carried out in triplicate. Samples were digested using an Enzymate BEH Pepsin column (2.1 × 30 mm, Waters) at 15 °C. Peptides were desalted on an ACQUITY UPLC BEH C18 VanGuard Pre-column (2.1 × 5 mm, Waters) and separated using an ACQUITY UPLC BEH C18 column (100 × 1 mm, Waters). ProteinLynx Global server (PLGS) and DynamX software was used for peptide identification and deuterium uptake analysis, respectively. PyMOL 2.5 was used for structural visualization.

GST-hCAR-LBD = target: T3, GST-hCAR-LBD (Homo sapiens, UniProt Q14994); experiment: LanthaScreen TR-FRET PGC1α coactivator recruitment assay; type: biochemical
T3 construct: GST-hCAR-LBD (5 nM), terbium-labeled anti-GST antibody (5 nM); purchased Invitrogen A15141
T3 sequence (Q14994 109-352 limits assumed): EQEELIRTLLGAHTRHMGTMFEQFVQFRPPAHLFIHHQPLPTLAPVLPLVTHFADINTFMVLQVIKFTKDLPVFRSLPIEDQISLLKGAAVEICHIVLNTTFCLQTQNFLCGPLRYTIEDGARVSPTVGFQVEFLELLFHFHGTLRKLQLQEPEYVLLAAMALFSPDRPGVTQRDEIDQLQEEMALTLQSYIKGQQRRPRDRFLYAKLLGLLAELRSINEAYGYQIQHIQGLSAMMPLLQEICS
Experimental: LanthaScreen^TM TR-FRET hCAR coactivator assays were performed according to manufacturer’s instructions (Invitrogen, A15141). Test compounds were incubated for 2 h at room temperature with GST-hCAR-LBD (5 nM), terbium-labeled anti-GST antibody (5 nM), and Fluorescein-PGC1α coactivator peptide (125 nM). Incubations were performed in four technical replicates. TR-FRET emissions were measured using a Tecan Infinite F200 Fluorescence Microplate Reader. Results were expressed as the ratio of fluorescence intensity at 520 nm (fluorescein emission excited by terbium emissions) and 495 nm (terbium emissions).

[2] = target: T4, His-tagged CAR-LBD-SRC1 fusion protein (Homo sapiens, UniProt Q14994); experiment: Isothermal titration calorimetry (ITC); type: binding; conditions: 25 °C; ligand 50 μM; mean of two independent experiments
T4 construct: The human CAR LBD (Lys^108 – Ser^352) was amplified by PCR from cDNA; HIS6; made in house; host or cells: E. coli BL21(DE3)
T4 sequence (Q14994 108-352): T1 sequence (Q14994 108-352)
Experimental: Purified hCAR-SRC1 protein (200–250 µM) was dissolved in 120 μL of PBS and supplemented with 0.5% DMSO. All experiments were performed in a MicroCal Auto-iTC200 instrument (Malvern Panalytical, Marlvern, United Kingdom) at 25 °C. Ligands were used at a concentration of 50 μM. Protein was titrated into cells in a series of 19 injections (injection 1 = 0.4 µL, injection 2–19 = 2 µL) 180 s apart. Control experiments performed by injection of the potein into […] yielded insignificant heats of dilution, and heat responses were subtracted. Integrated heat effects were analyzed using Microcal Origin 7 software (Malvern Instruments).

GAL4-hCAR LBD = target: T5, GAL4-hCAR LBD (Homo sapiens, UniProt Q14994); experiment: HEK293T GAL4-hCAR dual transfection reporter assay with PK11195 (antagonist displacement); type: cell-based; conditions: for HEK293 GAL4-hCAR EC50: basal reporter activity reduced with 1 µM PK11195
T5 construct: chimeric yeast GAL4 DBD fused to an hCAR LBD; expressed in transfected cells; host or cells: HEK293T (ATCC, CRL-3216)
T5 sequence (Q14994 109-352 limits assumed): T3 sequence (Q14994 109-352 limits assumed)
Text: The GAL4-hCAR, UAS-Luc, pcDNA-GAL4, pGL4-Renilla-Luc and pGEM plasmids were generously provided by Dr. David Mangelsdorf. The GAL4-hCAR plasmid encodes a constitutively expressed chimeric yeast GAL4 DBD fused to an hCAR LBD. The UAS-Luc plasmid encodes a Firefly luciferase reporter under the control of a GAL4 response element. The pcDNA plasmid encodes a constitutively expressed GAL4 DBD and was used as a control vector to determine non-specific luminescence in all HEK293T cellular reporter assays. The pGL4-Renilla-Luc plasmid encodes a constitutively expressed Renilla luciferase reporter and was used as a transfection control in the HEK293T cellular reporter assays.
HEK293T cells (ATCC, CRL-3216) were seeded at a density of 40,000 cells per well in white flat-bottom 96-well microplates (Greiner CellStar, 655073) in Dulbecco’s Modified Eagle Medium (DMEM) (2.5 g/l glucose) supplemented with 10% stripped fetal bovine serum with 100 units/ml of penicillin and incubated for 24 h at 37 °C. Transfection was carried out using 0.3 µL/well of Lipofectamine 2000 (Thermo Fisher Scientific, 11668019). Cells were transfected with 10 ng/well of either pcDNA or GAL4-hCAR, 50 ng/well of UAS-Luc, 5 ng/well of pGL4-Renilla-Luc, and 85 ng/well of pGEM for a total of 150 ng/well of DNA. […] Cells were incubated for 16-hours to allow build-up of luciferase and then processed using the Dual-Glo Luciferase Assay System (Promega, E2940) as per the manufacturer’s instructions. Incubations were performed in four technical replicates.

[3] = Liver-to-body weight ratio after treatment; type: in vivo; conditions: post-treatment, compared to control
Experimental: as §1

With C[C@]12CC[C@@H](O)C[C@@H]1CC[C@@H]1[C@@H]2CC[C@]2(C)C=CC[C@@H]12 [And, androstenol, reference compound] as the compound, how does the “CAR target gene expression after pre-treatment with inverse agonist” value ([1]; 100 mg/kg i.p. 15 min prior to first DIM or DIE treatment) read?
Its value is “greatly reduced target gene expression”.

What about the “sult2a1 expression in liver” value ([1]; WT or Nr1i3-/- mice) of the same compound?
The value was “did not show significant responses”.

And the “cyp3a11 expression in liver” value ([1]; mouse liver, with or without And pre-treatment)?
Its value is “increase rather than a decrease”.

What about the “liver histology (H&E) findings” value (Liver histology (H&E)) of the same compound?
The value was “occasional focal inflammation and mild cholangitis”.

With CC(C)(c1ccc(O)cc1)c1ccc(O)cc1 [BPA, bisphenol A, reference compound] as the compound, how does the “stabilization of CAR-LBD-SRC1 fusion (thermal stability)” value (hCAR LBD-SRC1 protein) read?
The value was “preferential stabilization”.

Which “stabilization of CAR-LBD-SRC1 fusion (thermal stability)” value (hCAR LBD-SRC1 protein) does the source give for Clc1ccc(-c2nc3sccn3c2C=NOCc2ccc(Cl)c(Cl)c2)cc1 [CITCO, 6-(4-chlorophenyl)imidazo[2,1-b][1,3]thiazole-5-carbaldehyde-O-(3,4-dichlorobenzyl)oxime, reference compound] here?
The value was “no effect on thermal stability”.

What about the “deuterium uptake change, residues 235–243 (H12/AF2)” value (hCAR) of the same compound?
The value was “decreased deuterium uptake”.

And the “deuterium uptake difference, amino acids 217–234 (H11)” value (hCAR)?
Its value is over 20%.

And the “difference in deuterium uptake compared to apo hCAR, amino acids 51–65 (H3)” value (hCAR)?
Its value is over 20%.

And the PGC1α cofactor recruitment (GST-hCAR-LBD)?
The PGC1α cofactor recruitment was “able to increase PGC1α recruitment beyond ‘constitutive’ levels”.

Which results are given for CCC(c1c[nH]c2ccccc12)c1c[nH]c2ccccc12 [DIP, 3,3’-diindolylpropane]?
Tm (hCAR LBD-SRC1 protein): 59.1 °C; Kd [2]: 6000 nM; HEK293 GAL4-hCAR EC50 (GAL4-hCAR LBD): Ambiguous

With Clc1cnc(Oc2ccc(Oc3ncc(Cl)cc3Cl)cc2)c(Cl)c1 [TCPOBOP, 1,4-bis-[2-(3,5,-dichloropyridyloxy)] benzene, reference compound] as the compound, how does the “mCAR target gene activation” value ([1]; WT male mice, 3 mg/kg i.p. once, livers after 3 days) read?
The value was “highly activate mCAR target genes”.

And the “liver weight / liver-to-body weight ratio” value [3]?
Its value is “significantly increased”.

With CC(C)C(c1c[nH]c2ccccc12)c1c[nH]c2ccccc12 [iDIB, 3,3’-diindolyl-iso-butane] as the compound, how does the Tm (hCAR LBD-SRC1 protein) read?
The Tm was 58.3 °C.

And the “HEK293 GAL4-hCAR EC50” value (GAL4-hCAR LBD)?
Its value is “Ambiguous”.

Which Tm (hCAR LBD-SRC1 protein) does the source give for CCCC(c1c[nH]c2ccccc12)c1c[nH]c2ccccc12 [nDIB] here?
Its Tm is 57.7 °C.

And the Kd [2]?
Its Kd is 790 nM and 780 nM.

And the EC50 (GAL4-hCAR LBD; read-out: HEK293 GAL4-hCAR EC50)?
The EC50 was 2360 nM.

From publication PMC10960024, “Diindoles produced from commensal microbiota metabolites function as endogenous CAR/Nr1i3 ligands” (Nature Communications, 2024)
